Assay results taken from patent publication US10844349B2 (Albumedix Ltd., priority 2011, dated 2020).

What was measured:
[1] = Microtitre plate insoluble aggregate test: time for A350 to increase by 0.2 AU at 65° C.; type: physicochemical; settings: cation chlorides 50-500 mM, albumin 10 mg/mL, pH 6.43, 65° C.
Protocol: The microtitre plate was gently rocked to mix the contents of each well, centrifuged to remove any air bubbles and placed in a Biotek Synergy Mx (Potton, UK) plate reader that had been pre-equilibrated and controlled at 65° C. The plate was then read at 350 nm every minute over a total incubation time of 8 hours. Gen5 software (Biotek software for the plate reader version 2.00.18) was used to calculate the time taken for the A350 nm absorbance to increase by 0.2 adsorption units above a base line. The base line was calculated from the mean of the first 5 data points.

[2] = tested on: Human embryonic stem cells (cell lines SAl21 and SA181); experiment: Effect of octanoate on stem cell culture (attachment, growth, undifferentiated state over 5 passages; text summary for both cell lines); type: cell-based; settings: 8 mM octanoate in 100 g/L albumin
Protocol: The effect of octanoate on stem cell culture was carried out by a contract research organization: Cellartis AB (Gothenburg, Sweden). […] The cell growth over the 5 passages was assessed by monitoring the cell doubling times during consecutive passages in cell production. The doubling times of cultures should be within a range of 28-40 hours, and can be seen as a trend indicator.

albumin stability (time for A350 to increase by 0.2 AU) [1]	SMILES	toxicity to stem cells [2]
very good	[Cl-].[Cl-].[Mg+2] [MgCl2]	
	CCCCCCCC(=O)O [octanoate]	toxic to stem cells
